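In this assay, cells in 96-well plates receive the compound at five concentrations for 48 hours. Endpoints are linearly interpolated between the surrounding concentrations. At the GI50, growth is halved.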 Activity calls are given as the source filed them. No stated cut-off is given here; in the data, active = GI50 up to about 1.1 µM and inactive = higher.
Key:
Assay in all cases: inhibition of tumour cell growth, NCI panel, 48 h
UACC-257 = test system: UACC-257
K562 = test system: K562
EKVX = test system: EKVX
Hs-578T = test system: Hs-578T
IGROV-1 = test system: IGROV-1
NCI-H522 = test system: NCI-H522
NCI-H460 = test system: NCI-H460
NCI-H226 = test system: NCI-H226
KM12 = test system: KM12
RXF 393 = test system: RXF 393
SF-295 = test system: SF-295
M14 = test system: M14
SNB-19 = test system: SNB-19
TK-10 = test system: TK-10
MOLT-4 = test system: MOLT-4
SF-539 = test system: SF-539
SK-OV-3 = test system: SK-OV-3
OVCAR-3 = test system: OVCAR-3
HT-29 = test system: HT-29
SF-268 = test system: SF-268
HL-60 = test system: HL-60
HCT-116 = test system: HCT-116
786-0 = test system: 786-0
ACHN = test system: ACHN
OVCAR-5 = test system: OVCAR-5
OVCAR-4 = test system: OVCAR-4
NCI-H23 = test system: NCI-H23
DU-145 = test system: DU-145
HOP-92 = test system: HOP-92
SNB-75 = test system: SNB-75
MCF7 = test system: MCF7
CCRF-CEM = test system: CCRF-CEM
SW-620 = test system: SW-620
A549 = test system: A549
MDA-MB-435 = test system: MDA-MB-435
SR = test system: SR
PC-3 = test system: PC-3
UO-31 = test system: UO-31
BT-549 = test system: BT-549
OVCAR-8 = test system: OVCAR-8
UACC-62 = test system: UACC-62
U-251 = test system: U-251
LOX IMVI = test system: LOX IMVI
MDA-N = test system: MDA-N
COLO 205 = test system: COLO 205
SK-MEL-5 = test system: SK-MEL-5
A498 = test system: A498
T47D = test system: T47D
MDA-MB-231 = test system: MDA-MB-231
CAKI-1 = test system: CAKI-1
HCT-15 = test system: HCT-15
HOP-62 = test system: HOP-62
HCC 2998 = test system: HCC 2998
Malme-3M = test system: Malme-3M
SK-MEL-28 = test system: SK-MEL-28
SN12C = test system: SN12C
NCI/ADR-RES = test system: NCI/ADR-RES

In the case of CCc1cc2c(oc3c4ccccc4ccc23)c(=O)[nH]1, the GI50 (UACC-257) is reported as > 10 µM (inactive), the GI50 (K562) is reported as > 10 µM (inactive) and the GI50 (EKVX) is reported as > 10 µM (inactive). For the same molecule, the GI50 (Hs-578T) was > 10 µM (inactive), the GI50 (IGROV-1) was > 10 µM (inactive) and the GI50 (NCI-H522) was > 10 µM (inactive). For the same molecule, the GI50 (NCI-H460) was > 10 µM (inactive), the GI50 (NCI-H226) was > 10 µM (inactive) and the GI50 (KM12) was > 10 µM (inactive). The GI50 (RXF 393) was > 10 µM (inactive), the GI50 (SF-295) was > 10 µM (inactive) and the GI50 (M14) was > 10 µM (inactive). The GI50 (SNB-19) was > 10 µM (inactive), the GI50 (TK-10) was > 10 µM (inactive) and the GI50 (MOLT-4) was > 10 µM (inactive). For the same molecule, the GI50 (SF-539) was > 10 µM (inactive), the GI50 (SK-OV-3) was > 10 µM (inactive) and the GI50 (OVCAR-3) was > 10 µM (inactive). The GI50 (HT-29) was > 10 µM (inactive), the GI50 (SF-268) was > 10 µM (inactive) and the GI50 (HL-60) was > 10 µM (inactive). For the same molecule, the GI50 (HCT-116) was > 10 µM (inactive), the GI50 (786-0) was > 10 µM (inactive) and the GI50 (ACHN) was > 10 µM (inactive). For the same molecule, the GI50 (OVCAR-5) was > 10 µM (inactive), the GI50 (OVCAR-4) was > 10 µM (inactive) and the GI50 (NCI-H23) was > 10 µM (inactive). For the same molecule, the GI50 (DU-145) was > 10 µM (inactive), the GI50 (HOP-92) was > 10 µM (inactive) and the GI50 (SNB-75) was > 10 µM (inactive). The GI50 (MCF7) was > 10 µM (inactive), the GI50 (CCRF-CEM) was > 10 µM (inactive) and the GI50 (SW-620) was > 10 µM (inactive). The GI50 (A549) was > 10 µM (inactive), the GI50 (MDA-MB-435) was > 10 µM (inactive) and the GI50 (SR) was > 10 µM (inactive). The GI50 (PC-3) was > 10 µM (inactive), the GI50 (UO-31) was > 10 µM (inactive) and the GI50 (BT-549) was > 10 µM (inactive). For the same molecule, the GI50 (OVCAR-8) was > 10 µM (inactive), the GI50 (UACC-62) was > 10 µM (inactive) and the GI50 (U-251) was > 10 µM (inactive). The GI50 (LOX IMVI) was > 10 µM (inactive) and the GI50 (MDA-N) was > 10 µM (inactive).
With CC1(C)Cc2c(cnn2-c2ccc(C(F)(F)F)cc2)-c2[nH]c(-c3ccc(O)cc3)nc21 the GI50 (UACC-257) was 16.4 µM (inactive), the GI50 (K562) was 5.15 µM (inactive) and the GI50 (COLO 205) was 13.7 µM (inactive). The GI50 (EKVX) was 20.4 µM (inactive), the GI50 (SK-MEL-5) was 16.9 µM (inactive) and the GI50 (IGROV-1) was 19.4 µM (inactive). For the same molecule, the GI50 (NCI-H522) was 8.99 µM (inactive), the GI50 (NCI-H460) was 14.4 µM (inactive) and the GI50 (NCI-H226) was 27.2 µM (inactive). The GI50 (KM12) was 13 µM (inactive), the GI50 (RXF 393) was 3.46 µM (inactive) and the GI50 (A498) was 20.4 µM (inactive). For the same molecule, the GI50 (T47D) was 16.7 µM (inactive), the GI50 (SF-295) was 16 µM (inactive) and the GI50 (M14) was 14.9 µM (inactive). For the same molecule, the GI50 (SNB-19) was 16.6 µM (inactive), the GI50 (MDA-MB-231) was 22.3 µM (inactive) and the GI50 (TK-10) was 16.5 µM (inactive). For the same molecule, the GI50 (MOLT-4) was 2.05 µM (inactive), the GI50 (SK-OV-3) was 21.4 µM (inactive) and the GI50 (OVCAR-3) was 13.9 µM (inactive). For the same molecule, the GI50 (HT-29) was 3.99 µM (inactive), the GI50 (SF-268) was 9.16 µM (inactive) and the GI50 (CAKI-1) was 17.4 µM (inactive). For the same molecule, the GI50 (HL-60) was 4.72 µM (inactive), the GI50 (HCT-116) was 13.1 µM (inactive) and the GI50 (HCT-15) was 11.1 µM. For the same molecule, the GI50 (786-0) was 3.32 µM (inactive), the GI50 (ACHN) was 14.6 µM (inactive) and the GI50 (OVCAR-5) was 17.8 µM (inactive). The GI50 (OVCAR-4) was 12.2 µM (inactive), the GI50 (NCI-H23) was 18.2 µM (inactive) and the GI50 (DU-145) was 17.5 µM (inactive). For the same molecule, the GI50 (HOP-62) was 21.4 µM (inactive), the GI50 (HOP-92) was 17.9 µM (inactive) and the GI50 (SNB-75) was 8.81 µM (inactive). The GI50 (MCF7) was 14.2 µM (inactive), the GI50 (CCRF-CEM) was 2.18 µM (inactive) and the GI50 (SW-620) was 14.5 µM (inactive). The GI50 (A549) was 12.7 µM (inactive), the GI50 (MDA-MB-435) was 17.2 µM (inactive) and the GI50 (SR) was 4.71 µM (inactive). The GI50 (PC-3) was 16 µM (inactive), the GI50 (HCC 2998) was 15.7 µM (inactive) and the GI50 (UO-31) was 15.3 µM (inactive). The GI50 (BT-549) was 12.8 µM (inactive), the GI50 (OVCAR-8) was 20.8 µM (inactive) and the GI50 (UACC-62) was 16.2 µM (inactive). The GI50 (U-251) was 12.3 µM (inactive), the GI50 (Malme-3M) was 14.6 µM (inactive) and the GI50 (SK-MEL-28) was 13.7 µM (inactive). For the same molecule, the GI50 (SN12C) was 16.7 µM (inactive), the GI50 (LOX IMVI) was 17.8 µM (inactive) and the GI50 (MDA-N) was 14.6 µM (inactive). For the same molecule, the GI50 (NCI/ADR-RES) was 19.5 µM (inactive).
